# From publication PMC7615343, “Fluorination Influences the Bioisostery of Myo-Inositol Pyrophosphate Analogs” (Chemistry (Weinheim an der Bergstrasse, Germany), 2023)
# Target: T1, PPIP5K2^1-366 (human PPIP5K2 kinase domain) (Homo sapiens, UniProt O43314)
# T1 construct: one comprised residues 1–366; made in house
# T1 sequence (O43314 1-366): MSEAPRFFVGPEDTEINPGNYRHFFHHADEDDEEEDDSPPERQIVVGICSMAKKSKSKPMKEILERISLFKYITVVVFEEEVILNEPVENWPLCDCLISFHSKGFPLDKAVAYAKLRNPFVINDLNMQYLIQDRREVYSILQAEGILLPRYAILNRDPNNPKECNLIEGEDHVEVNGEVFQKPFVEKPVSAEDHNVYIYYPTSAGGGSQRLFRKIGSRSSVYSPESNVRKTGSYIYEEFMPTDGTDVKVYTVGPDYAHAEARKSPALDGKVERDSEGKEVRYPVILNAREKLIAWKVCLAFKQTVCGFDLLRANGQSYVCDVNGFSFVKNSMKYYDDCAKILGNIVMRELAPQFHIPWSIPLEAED
# Assay: PPIP5K2KD reverse kinase assay (ATP formation from ADP and 1,5(PP)2-IP4)
# Type: biochemical
# Conditions: 25 °C, 30 min, 0.1 mM ADP, 100 nM [1,5]PP-IP4, ATP production measured; this work; read-out: IC50, inhibition of the reverse kinase activity of PPIP5K2^1-366
# Description: An alternative method to study the interaction of PP-IP5 analogs with PPIP5K2^KD is to derive IC50 values for inhibition of a “reverse-kinase” assay that records ATP formation when the enzyme is incubated with ADP and 1,5(PP)2-IP4.[29, 31] This approach avoids the need to use radiolabeled material and HPLC analysis. Moreover, the assay of ATP production is inherently more sensitive compared to measuring ATP consumption. […] In addition to the catalytic pocket, the PPIP5K2 kinase reaction cycle also utilizes a surface-mounted substrate capture site; the latter was initially identified through its binding of 5PA-IP5.[31] […] In this case, the higher affinity of the capture site for less polar molecules may explain why 5PA-IP5 is the only analog so far detected in this site.
# For the reverse kinase assay, PPIP5K2^1-366 (2.5 μg mL^-1) was incubated at 25 °C for 30 min with 20 μL buffer containing 20 mM Tris-HCl, pH 7.5, 10 mM MgCl2, 0.1 mM ADP, 100 nM [1,5]PP-IP4 and various concentrations of either 5PCP-IP5 or 5PCF2P-IP5. The generated ATP was measured using a Molecular Probes ATP Determination kit (Thermo Fisher Scientific catalog number A22066). The IC50 value was calculated using GraphPad Prism. […]
# Diffraction data were collected using APS beamlines 22 -ID. […] The structure was determined using rigid body and direct Fourier synthesis, and refined with t he equivalent and expanded test sets. […]
row,IC50 [nM],Compound
1,583,O=P(O)(O)O[C@H]1[C@@H](OP(=O)(O)O)[C@H](OP(=O)(O)O)[C@@H](OP(=O)(O)C(F)(F)P(=O)(O)O)[C@H](OP(=O)(O)O)[C@H]1OP(=O)(O)O [5PCF2P-IP5]
2,223,O=P(O)(O)CP(=O)(O)O[C@H]1[C@H](OP(=O)(O)O)[C@@H](OP(=O)(O)O)[C@@H](OP(=O)(O)O)[C@@H](OP(=O)(O)O)[C@@H]1OP(=O)(O)O [5PCP-IP5]
